Source: patent US20010046662A1, “Method of inactivating pathogens in a red blood cell-containing composition” (priority 2000, published 2001)
“And” between values parts separate entries of the source, which are not always exact repeats. Identical values can stand only once.

Key:
red cells = experiment: Red cell hemolysis at day 42 for DMMB+light treated samples in a flow system; details: for Hemolysis (%), day 42: approximately 3.5 μM DMMB, no blocker, stored at 1-6° C.
VSV = assay type: cell-based, vesicular stomatitis virus
red blood cells = details: with type 1/type 2 quenchers, optimized conditions; cited from earlier work

Cc1cc(N(C)C)cc2[s+]c3cc(N(C)C)cc(C)c3nc12 [DMMB, 1,9-dimethylmethylene blue]
Hemolysis (%), day 42 (red cells; light fluence 226 mJ/cm^2): 2.8% and 2.84%
Hemolysis (%), day 42 (red cells; light fluence 889 mJ/cm^2): 14.5% and 14.53%
Hemolysis (%), day 42 (red cells; light fluence 1597 mJ/cm^2): 12.10%
increase in hemolysis with greater light fluences (red cells; samples lacking riboflavin, 2.8 to 14.5%): 500%
increase in VSV inactivation with greater light fluences (VSV): 50%

Cc1cc2nc3c(=O)[nH]c(=O)nc-3n(C[C@H](O)[C@H](O)[C@H](O)CO)c2cc1C [riboflavin, 7,8-dimethyl-10-ribitylisoalloxazine]
enhancement of VSV inactivation by addition of the blocker (VSV): > 4.1 log10

phthalocyanine 4
cells that hemolyze after 21 days of storage (red blood cells): about 2%
